The values below come from PMC11968843, “Sulphostin-inspired N-phosphonopiperidones as selective covalent DPP8 and DPP9 inhibitors” (Nature Communications, 2025).

“And” between values parts separate entries of the source, which are not always exact repeats. Identical values can stand only once. “Also recorded” adds a separate entry of the source.

The test system of series [1] is HeLa wild-type cells. The series is described as follows: Cell viability assay (MTT), co-treatment with Mitomycin C. The format is cell-based. Particulars: for cell viability normalized for each condition seperately to corresponsing [-MMC +inhibitor] control: +MMC co-treatment, individual replicate values (Supplementary Figure 11b). The method, then: (§1) HeLa wild-type (HeLa Flp-In T-REx WT, kind gift from Prof. Matthias Hentze) and HeLa DPP9^KO cells (prepared in-house) were cultured in DMEM (ThermoFisher, USA) supplemented with 10% FBS (PAN Biotech, Germany), 2 mM L-Glutamin (ThermoFisher, USA) and 1% Penicillin/Streptomycin (100 U mL^−1 Penicillin and 100 µg mL^−1 Streptomycin, ThermoFisher, USA). Cells were seeded in 96-well flat-bottom cell culture plates (Greiner, Germany) at a concentration of 5 × 10^3 cells per well (37 °C and 5% CO2). The indicated concentration of Mitomycin C (MMC, Merck) was added to the cells 24 h after seeding, together with 10 µM of the indicated inhibitor. The inhibitors were refreshed every 24 h. Control cells were treated with DMSO.
(§2) Cell viability was measured 72 hours after the MMC treatment. For this, the medium was removed and replaced with phenol-red free DMEM (ThermoFisher, USA) containing 0.5 mg mL^−1 MTT (Sigma Aldrich, USA). Cells were incubated for 30 min at 37 °C, 5% CO2. Subsequently, the medium was removed and replaced by DMSO. The plates were shaken on an orbital shaker for 20 min before measuring the MTT signal on a CARIOstar Plus microplate reader (BMT labtech, Germany). Each experiment was performed three times, each in triplicates.

For series [2], the system named is HeLa wild-type cells. The series is described as follows: Cell viability assay (MTT), inhibitor alone. The format is cell-based. Particulars: for Cell viability normalized to mock treated cells + 0 µM MMC: individual replicate values (Supplementary Figure 11a); for 95% confidence interval of difference: Figure 5d S11a, Ctrl. [-MMC] vs. compound [-MMC], Tukey's multiple comparisons test. The method, then:
as §1, §2

Series [3] concerns the target T1, HEK293 cell lysates (proteome-wide targets of probe 9) (Homo sapiens, UniProt P0DMV8).
T1 construct: endogenous in cells; host or cells: HEK293 cell lysate
The series is described as follows: Competitive ABPP / direct target identification with alkyne probe 9 in HEK293 cell lysates. The format is binding, H. sapiens. As to conditions: protein HSPA1A;HSPA1B.

Series [4] addresses T2, HEK293 cell lysates (proteome-wide targets of probe 9) (Homo sapiens, UniProt P05388).
T2 construct: endogenous in cells; host or cells: HEK293 cell lysate
Described as above. The series is classed as binding, H. sapiens. As to conditions: protein RPLP0;RPLP0P6.

Series [5] has as its target T3, DPP9-BRCA2 interaction in HeLa wild-type cells (Homo sapiens, UniProt Q86TI2).
T3 construct: endogenous in cells; host or cells: HeLa wild-type (HeLa Flp-In T-REx WT)
The series can be described thus: Proximity ligation assay (PLA) of MMC-induced DPP9-BRCA2 interaction. The series is classed as cell-based. As to conditions: for 95% confidence interval of difference: compound vs. +Ctrl., Unpaired two-sided t-test. The method, then: HeLa wild-type cells were cultured as described above. Cells were seeded on coverslips in 24‐well plates (Greiner, Germany) at a concentration of 2 × 10^4 cells per well (37 °C and 5% CO2). To induce a DPP9-BRCA2 interaction, 300 nM MMC was added to the cells 8 h after seeding and for a total incubation time of 24 h. Indicated Inhibitors (10 µM) were added 1 h prior to cell fixation. Cells were fixed with 4% formaldehyde in PBS for 10 min and permeabilized with 0.2% Triton‐X‐100 in PBS for 5 min. The proximity ligation assay (PLA) was performed using the Duolink in situ PLA Kit (Sigma Aldrich, USA). Briefly, cells were washed with PBS and blocked with Duolink Blocking solution for 60 min at 37 °C. […] Antibody control coverslips were treated with only one primary antibody to estimate background staining in each experiment. Coverslips were washed and treated with PLA reagents according to the manufacturers protocol. Cells were mounted in DAKO with DAPI fluorescent mounting medium and analyzed using an LSM 710 confocal microscope, 63x NA 1.4 oil immersion objective (Zeiss, Germany). Images were processed using Zen black v2.3 (Zeiss, Germany) and subsequently analyzed using the Duolink ImageTool Setup 1.0.1.2 (Sigma Aldrich, USA).

The mark [6] stands for this setting: Figure 5d S11a, + Ctrl. [+MMC] vs. compound [+MMC], Tukey's multiple comparisons test.
Where [7] appears, read: Figure S11b, Ctrl. vs. compound, Uncorrected Fisher's LSD.

T3 sequence (Q86TI2 whole entry): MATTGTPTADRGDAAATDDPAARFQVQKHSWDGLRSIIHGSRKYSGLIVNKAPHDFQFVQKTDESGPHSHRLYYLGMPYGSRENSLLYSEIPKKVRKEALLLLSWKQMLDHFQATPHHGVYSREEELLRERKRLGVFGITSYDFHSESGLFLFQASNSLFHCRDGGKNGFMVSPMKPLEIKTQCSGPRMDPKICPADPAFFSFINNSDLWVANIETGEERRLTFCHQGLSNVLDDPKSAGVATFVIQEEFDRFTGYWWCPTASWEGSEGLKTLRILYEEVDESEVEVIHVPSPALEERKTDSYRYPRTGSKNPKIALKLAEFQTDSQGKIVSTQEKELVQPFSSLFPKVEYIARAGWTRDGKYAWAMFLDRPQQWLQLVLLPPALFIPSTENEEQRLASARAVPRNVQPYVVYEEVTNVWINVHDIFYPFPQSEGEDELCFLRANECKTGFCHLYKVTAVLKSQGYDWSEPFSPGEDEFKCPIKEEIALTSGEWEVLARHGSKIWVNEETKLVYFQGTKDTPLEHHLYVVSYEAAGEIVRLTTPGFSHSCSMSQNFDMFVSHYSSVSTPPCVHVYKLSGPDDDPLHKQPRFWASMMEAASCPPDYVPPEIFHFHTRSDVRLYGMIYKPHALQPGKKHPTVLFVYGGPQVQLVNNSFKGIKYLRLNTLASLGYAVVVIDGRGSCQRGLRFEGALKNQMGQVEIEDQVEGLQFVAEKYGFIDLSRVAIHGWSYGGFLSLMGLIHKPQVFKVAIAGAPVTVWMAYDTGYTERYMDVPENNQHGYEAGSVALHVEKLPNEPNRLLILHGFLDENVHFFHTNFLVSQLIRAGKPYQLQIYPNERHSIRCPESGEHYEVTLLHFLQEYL
T1 sequence (P0DMV8 whole entry): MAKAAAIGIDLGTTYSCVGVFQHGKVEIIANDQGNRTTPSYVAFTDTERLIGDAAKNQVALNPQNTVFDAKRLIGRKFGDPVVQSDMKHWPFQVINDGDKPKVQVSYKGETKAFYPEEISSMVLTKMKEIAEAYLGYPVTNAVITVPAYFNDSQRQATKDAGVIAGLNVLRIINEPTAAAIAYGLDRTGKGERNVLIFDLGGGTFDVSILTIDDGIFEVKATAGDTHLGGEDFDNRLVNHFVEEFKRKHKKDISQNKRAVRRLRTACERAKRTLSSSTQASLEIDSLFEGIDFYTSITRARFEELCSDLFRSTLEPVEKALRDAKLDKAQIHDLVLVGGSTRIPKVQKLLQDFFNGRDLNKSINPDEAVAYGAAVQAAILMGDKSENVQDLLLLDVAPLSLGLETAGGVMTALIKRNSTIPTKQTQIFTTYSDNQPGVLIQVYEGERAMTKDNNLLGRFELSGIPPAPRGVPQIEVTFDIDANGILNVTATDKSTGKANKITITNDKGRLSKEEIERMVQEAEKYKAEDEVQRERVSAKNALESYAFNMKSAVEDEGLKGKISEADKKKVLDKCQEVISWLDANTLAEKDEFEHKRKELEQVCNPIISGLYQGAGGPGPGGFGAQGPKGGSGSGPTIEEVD

Take `CCCCCCP(=O)(OCC)N1CCC[C@H](N)C1=O` (stereo partly shown) [Compound 5]: the “cell viability normalized for each condition seperately to corresponsing [-MMC +inhibitor] control” value in the series on HeLa wild-type cells [1] was 58.346% and 64.1242% and 71.7486% and 57.5023% and 82.3895% and 73.7368% and 74.46% and 78.7587% and 61.0935%. The “95% confidence interval of difference” value is -9,959 to 11,24 in the series on HeLa wild-type cells [1] (setting [6]), -11,45 to 2,173 in the series on HeLa wild-type cells [1] (setting [7]) and -2,823 to 18,38 in the series on HeLa wild-type cells [2]. In the series on HeLa wild-type cells [2], the “Cell viability normalized to mock treated cells + 0 µM MMC” value was 95.9127% and 99.5028% and 95.7865% and 114.42% and 79.6662% and 94.1915% and 91.8119% and 83.2505% and 91.8375%.

Turning to `C#CCCCP(=O)(OCC)N1CCCC(N)C1=O.O=C(O)C(F)(F)F` (mixture of isomers) [Compound 9], the “Log2-fold change (9/DMSO)” value in series [3] came out at 0.0845; in series [4], 0.9479.

Regarding `CCCCCc1ccc(SCCP(=O)(OCC)N2CCC[C@H](N)C2=O)cc1.O=C(O)C(F)(F)F` (stereo partly shown) [Compound 16], the “cell viability normalized for each condition seperately to corresponsing [-MMC +inhibitor] control” value in the series on HeLa wild-type cells [1] is 56.5022% and 55.2183% and 55.934% and 53.6658% and 54.9944% and 49.1952% and 50.7013% and 59.4169% and 66.1488%. Also, the “95% confidence interval of difference” value in the series on HeLa wild-type cells [1] (setting [6]) is recorded as 1,107 to 22,31; in the series with HeLa wild-type cells [1] (setting [7]) it was 1,930 to 15,55; with HeLa wild-type cells [2], -4,629 to 16,57; in series [5] (Figure 5c) it was -75,96 to -55,68; in series [5] (Figure S10a replicate 1), -67,48 to -40,38; in series [5] (Figure S10a replicate 2), -89,07 to -45,54. Besides, in series [5] (Figure S10a replicate 3), the “95% confidence interval of difference” value is listed as -92,21 to -59,25. For the same molecule, the “effect on cell viability / sensitivity to MMC” value in the series with HeLa wild-type cells [1] (HeLa wild-type, 1 µM MMC + 10 µM inhibitor, 72 h) was “increase in the sensitivity of cells to genotoxic stress; also recorded: clearly increased the sensitivity of cells to MMC”. In the series on HeLa wild-type cells [2], the “Cell viability normalized to mock treated cells + 0 µM MMC” value was 97.3681% and 98.2989% and 98.3512% and 104.946% and 88.3417% and 98.5541% and 95.4309% and 92.3469% and 88.9994%. The “effect on cell viability without MMC” value in the series on HeLa wild-type cells [2] (HeLa wild-type, 10 µM, 72 h) was “not toxic to cells; also recorded: did not show cytotoxic effects”. Also, the “effect on MMC-induced DPP9-BRCA2 PLA events” value in series [5] (HeLa wild-type, 300 nM MMC 24 h, 10 µM inhibitor) is recorded as “significant reduction in the number of MMC-induced PLA events”.
